What was measured:
[1] = target: Tyrosine-protein kinase JAK2 (Homo sapiens, UniProt O60674); assay: Inhibition of JAK2 (unknown origin) preincubated for 60 mins followed by reagent A addition and measured after 60 mins in presence of ATP by using microplate reader method
[2] = target: T1, Protein deacetylase HDAC6 (Homo sapiens) (UniProt Q9UBN7); assay: Inhibition of HDAC6 (unknown origin) at 10 nM incubated for 60 mins by microplate reader analysis relative to control
T1 sequence (whole entry): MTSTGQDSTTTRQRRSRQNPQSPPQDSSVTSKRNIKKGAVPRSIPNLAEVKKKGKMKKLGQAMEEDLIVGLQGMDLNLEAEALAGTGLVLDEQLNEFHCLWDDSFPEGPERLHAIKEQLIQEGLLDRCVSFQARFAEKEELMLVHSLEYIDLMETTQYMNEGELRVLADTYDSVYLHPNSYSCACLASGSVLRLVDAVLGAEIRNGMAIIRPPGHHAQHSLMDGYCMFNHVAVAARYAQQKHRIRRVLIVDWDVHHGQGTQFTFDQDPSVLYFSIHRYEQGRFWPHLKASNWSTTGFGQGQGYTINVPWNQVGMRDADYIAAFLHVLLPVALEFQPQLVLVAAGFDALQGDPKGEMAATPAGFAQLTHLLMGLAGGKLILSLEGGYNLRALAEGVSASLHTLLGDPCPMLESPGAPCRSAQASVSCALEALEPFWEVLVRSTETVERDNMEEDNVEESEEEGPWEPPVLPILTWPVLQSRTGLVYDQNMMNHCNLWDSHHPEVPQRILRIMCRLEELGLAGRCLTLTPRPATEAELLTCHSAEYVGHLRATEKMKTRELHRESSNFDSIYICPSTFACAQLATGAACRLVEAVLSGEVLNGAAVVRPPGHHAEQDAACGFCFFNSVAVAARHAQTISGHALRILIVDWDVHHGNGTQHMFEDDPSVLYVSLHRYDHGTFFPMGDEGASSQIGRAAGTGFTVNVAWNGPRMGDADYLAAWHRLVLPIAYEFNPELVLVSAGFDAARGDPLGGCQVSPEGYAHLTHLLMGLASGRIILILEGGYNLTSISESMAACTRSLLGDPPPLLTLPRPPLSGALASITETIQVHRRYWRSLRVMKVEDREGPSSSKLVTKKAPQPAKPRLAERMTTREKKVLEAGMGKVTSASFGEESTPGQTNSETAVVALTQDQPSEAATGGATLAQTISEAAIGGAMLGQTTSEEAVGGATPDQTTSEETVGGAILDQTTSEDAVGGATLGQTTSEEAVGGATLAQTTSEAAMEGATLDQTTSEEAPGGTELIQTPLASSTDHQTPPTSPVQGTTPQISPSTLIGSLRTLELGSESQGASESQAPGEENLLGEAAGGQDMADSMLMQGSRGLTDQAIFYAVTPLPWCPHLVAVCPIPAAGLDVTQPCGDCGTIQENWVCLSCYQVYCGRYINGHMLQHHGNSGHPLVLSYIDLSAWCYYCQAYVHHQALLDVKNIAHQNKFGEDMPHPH

[3] = target: T2, Protein deacetylase HDAC6 (Homo sapiens, UniProt Q9UBN7); assay: Inhibition of HDAC6 (unknown origin) incubated for 60 mins by microplate reader analysis
T2 sequence (Q9UBN7 whole entry): T1 sequence (whole entry)

[4] = target: T3, Tyrosine-protein kinase JAK3 (Homo sapiens, UniProt P52333); assay: Inhibition of JAK3 (unknown origin) preincubated for 60 mins followed by reagent A addition and measured after 60 mins in presence of ATP by using microplate reader method
T3 sequence (P52333 whole entry): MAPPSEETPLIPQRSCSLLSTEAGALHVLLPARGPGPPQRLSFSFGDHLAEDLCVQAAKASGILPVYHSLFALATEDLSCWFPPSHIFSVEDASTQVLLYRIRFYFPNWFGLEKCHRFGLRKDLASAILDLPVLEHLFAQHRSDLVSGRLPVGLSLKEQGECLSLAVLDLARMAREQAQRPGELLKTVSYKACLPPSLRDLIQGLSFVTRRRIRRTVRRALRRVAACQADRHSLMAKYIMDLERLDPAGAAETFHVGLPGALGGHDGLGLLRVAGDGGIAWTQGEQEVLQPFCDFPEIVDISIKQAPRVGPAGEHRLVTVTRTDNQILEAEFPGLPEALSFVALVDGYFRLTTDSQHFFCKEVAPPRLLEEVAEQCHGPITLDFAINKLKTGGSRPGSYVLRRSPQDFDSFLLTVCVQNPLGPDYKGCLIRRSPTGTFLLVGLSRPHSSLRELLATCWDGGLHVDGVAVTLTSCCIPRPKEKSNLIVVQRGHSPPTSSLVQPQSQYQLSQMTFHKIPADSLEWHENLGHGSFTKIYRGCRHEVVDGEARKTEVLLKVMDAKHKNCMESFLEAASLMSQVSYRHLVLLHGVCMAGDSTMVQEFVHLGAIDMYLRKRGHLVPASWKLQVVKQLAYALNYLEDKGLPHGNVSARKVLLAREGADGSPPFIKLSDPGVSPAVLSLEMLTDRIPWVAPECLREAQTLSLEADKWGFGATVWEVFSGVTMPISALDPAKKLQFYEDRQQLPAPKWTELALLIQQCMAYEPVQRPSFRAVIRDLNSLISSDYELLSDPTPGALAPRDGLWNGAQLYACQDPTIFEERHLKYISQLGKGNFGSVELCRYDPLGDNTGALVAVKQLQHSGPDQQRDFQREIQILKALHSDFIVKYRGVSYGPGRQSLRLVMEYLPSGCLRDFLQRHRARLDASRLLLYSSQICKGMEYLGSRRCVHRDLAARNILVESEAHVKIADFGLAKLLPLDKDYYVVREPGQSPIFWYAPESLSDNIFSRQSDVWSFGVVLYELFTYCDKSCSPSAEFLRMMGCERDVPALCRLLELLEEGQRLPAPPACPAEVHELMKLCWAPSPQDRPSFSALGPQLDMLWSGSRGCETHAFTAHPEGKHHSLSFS

Histone deacetylase 1 = Histone deacetylase 1 (Homo sapiens, UniProt Q13547); assay: Inhibition of HDAC1 (unknown origin) incubated for 60 mins using microplate reader analysis
Chain of Histone deacetylase 1 (Q13547 whole entry): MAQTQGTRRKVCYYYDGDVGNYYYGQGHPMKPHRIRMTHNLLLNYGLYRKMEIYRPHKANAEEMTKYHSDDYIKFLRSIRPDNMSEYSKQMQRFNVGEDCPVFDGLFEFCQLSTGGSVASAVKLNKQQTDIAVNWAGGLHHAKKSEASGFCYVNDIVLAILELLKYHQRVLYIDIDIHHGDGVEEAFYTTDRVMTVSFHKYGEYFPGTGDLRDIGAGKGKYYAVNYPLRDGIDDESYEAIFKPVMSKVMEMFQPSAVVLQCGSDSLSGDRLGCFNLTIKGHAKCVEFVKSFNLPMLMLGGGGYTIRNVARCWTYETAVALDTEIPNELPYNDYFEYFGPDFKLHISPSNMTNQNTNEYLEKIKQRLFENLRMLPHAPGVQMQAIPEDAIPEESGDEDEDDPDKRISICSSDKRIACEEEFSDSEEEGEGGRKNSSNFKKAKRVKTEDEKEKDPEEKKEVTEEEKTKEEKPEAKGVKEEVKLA

[5] = target: Non-receptor tyrosine-protein kinase TYK2 (Homo sapiens, UniProt P29597); assay: Inhibition of TYK2 (unknown origin) incubated for 40 min in presence of ATP by microplate reader analysis
Chain of Non-receptor tyrosine-protein kinase TYK2 (P29597 whole entry): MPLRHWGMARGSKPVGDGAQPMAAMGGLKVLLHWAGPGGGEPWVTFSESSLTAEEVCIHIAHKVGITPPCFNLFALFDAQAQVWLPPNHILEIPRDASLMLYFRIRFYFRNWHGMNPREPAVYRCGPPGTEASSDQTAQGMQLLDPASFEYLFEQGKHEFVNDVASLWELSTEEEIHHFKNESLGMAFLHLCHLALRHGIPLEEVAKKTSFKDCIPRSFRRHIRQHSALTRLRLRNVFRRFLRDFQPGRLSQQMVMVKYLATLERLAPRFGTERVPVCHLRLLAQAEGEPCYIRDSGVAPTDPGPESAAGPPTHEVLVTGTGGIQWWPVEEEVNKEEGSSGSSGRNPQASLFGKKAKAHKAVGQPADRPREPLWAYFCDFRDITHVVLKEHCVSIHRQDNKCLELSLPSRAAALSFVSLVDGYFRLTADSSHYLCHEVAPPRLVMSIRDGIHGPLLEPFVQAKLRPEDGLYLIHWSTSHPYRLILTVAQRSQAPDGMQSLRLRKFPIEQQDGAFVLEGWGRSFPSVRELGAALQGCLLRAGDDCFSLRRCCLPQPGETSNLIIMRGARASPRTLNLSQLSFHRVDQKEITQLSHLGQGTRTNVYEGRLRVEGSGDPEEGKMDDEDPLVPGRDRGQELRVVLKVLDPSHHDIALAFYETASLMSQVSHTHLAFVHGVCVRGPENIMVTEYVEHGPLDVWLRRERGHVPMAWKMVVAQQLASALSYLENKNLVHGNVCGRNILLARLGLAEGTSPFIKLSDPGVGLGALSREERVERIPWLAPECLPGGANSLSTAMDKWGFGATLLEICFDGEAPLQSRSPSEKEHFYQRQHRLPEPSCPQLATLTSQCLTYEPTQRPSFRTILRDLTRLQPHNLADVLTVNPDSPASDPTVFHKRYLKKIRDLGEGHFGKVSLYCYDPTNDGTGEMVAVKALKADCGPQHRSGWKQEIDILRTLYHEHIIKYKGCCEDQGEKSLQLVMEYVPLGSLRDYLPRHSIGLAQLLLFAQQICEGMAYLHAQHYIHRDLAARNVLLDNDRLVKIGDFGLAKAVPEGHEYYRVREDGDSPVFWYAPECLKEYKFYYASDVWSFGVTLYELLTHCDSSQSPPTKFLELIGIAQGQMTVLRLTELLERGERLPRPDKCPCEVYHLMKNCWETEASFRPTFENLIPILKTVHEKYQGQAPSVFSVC

[6] = target: Tyrosine-protein kinase JAK1 (Homo sapiens, UniProt P23458); assay: Inhibition of JAK1 (unknown origin) preincubated for 60 mins followed by reagent A addition and measured after 60 mins in presence of ATP by using microplate reader method
Chain of Tyrosine-protein kinase JAK1 (P23458 whole entry): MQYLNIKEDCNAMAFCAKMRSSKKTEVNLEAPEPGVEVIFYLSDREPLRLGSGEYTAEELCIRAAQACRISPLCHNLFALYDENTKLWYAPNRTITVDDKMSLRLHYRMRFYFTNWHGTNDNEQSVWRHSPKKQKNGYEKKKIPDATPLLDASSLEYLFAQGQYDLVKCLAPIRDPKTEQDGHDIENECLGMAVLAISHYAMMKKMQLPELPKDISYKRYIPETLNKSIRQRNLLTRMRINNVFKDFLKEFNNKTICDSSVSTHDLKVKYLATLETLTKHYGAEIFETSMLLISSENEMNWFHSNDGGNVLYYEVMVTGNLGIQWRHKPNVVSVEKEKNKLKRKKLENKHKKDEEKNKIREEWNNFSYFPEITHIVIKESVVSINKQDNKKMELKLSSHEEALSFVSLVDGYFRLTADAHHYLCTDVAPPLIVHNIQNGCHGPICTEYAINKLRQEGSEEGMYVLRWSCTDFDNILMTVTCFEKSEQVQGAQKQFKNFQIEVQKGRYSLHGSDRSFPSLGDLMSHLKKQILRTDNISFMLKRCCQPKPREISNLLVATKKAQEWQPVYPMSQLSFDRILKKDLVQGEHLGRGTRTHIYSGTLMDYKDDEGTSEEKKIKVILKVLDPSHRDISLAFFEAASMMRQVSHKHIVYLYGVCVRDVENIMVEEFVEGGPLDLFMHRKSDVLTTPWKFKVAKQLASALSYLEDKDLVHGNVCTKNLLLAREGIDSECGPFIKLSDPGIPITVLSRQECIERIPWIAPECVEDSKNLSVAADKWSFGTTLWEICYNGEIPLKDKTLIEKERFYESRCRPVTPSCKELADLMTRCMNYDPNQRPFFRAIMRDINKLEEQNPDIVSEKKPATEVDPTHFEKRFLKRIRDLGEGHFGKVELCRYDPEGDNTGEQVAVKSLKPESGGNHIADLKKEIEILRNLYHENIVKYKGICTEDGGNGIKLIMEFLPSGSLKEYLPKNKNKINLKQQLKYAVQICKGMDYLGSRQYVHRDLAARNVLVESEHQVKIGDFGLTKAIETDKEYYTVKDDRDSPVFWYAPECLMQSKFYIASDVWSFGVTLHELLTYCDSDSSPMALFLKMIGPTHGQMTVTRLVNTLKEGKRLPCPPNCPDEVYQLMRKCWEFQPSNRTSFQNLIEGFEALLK

MDA-MB-468 = assay: cells; type: functional, cell-based; settings: Homo sapiens, MDA-MB-468, 72 h
BT-549 = assay: cells; type: functional, cell-based; settings: Homo sapiens, BT-549, 72 h
4T1 = assay: cells; type: functional, cell-based; settings: Mus musculus, 4T1, 72 h
MDA-MB-231 = assay: cells; type: functional, cell-based; settings: Homo sapiens, MDA-MB-231, 72 h
CAL-51 = assay: cells; type: functional, cell-based; settings: Homo sapiens, CAL-51, 72 h

Chain of Tyrosine-protein kinase JAK2 (O60674 whole entry): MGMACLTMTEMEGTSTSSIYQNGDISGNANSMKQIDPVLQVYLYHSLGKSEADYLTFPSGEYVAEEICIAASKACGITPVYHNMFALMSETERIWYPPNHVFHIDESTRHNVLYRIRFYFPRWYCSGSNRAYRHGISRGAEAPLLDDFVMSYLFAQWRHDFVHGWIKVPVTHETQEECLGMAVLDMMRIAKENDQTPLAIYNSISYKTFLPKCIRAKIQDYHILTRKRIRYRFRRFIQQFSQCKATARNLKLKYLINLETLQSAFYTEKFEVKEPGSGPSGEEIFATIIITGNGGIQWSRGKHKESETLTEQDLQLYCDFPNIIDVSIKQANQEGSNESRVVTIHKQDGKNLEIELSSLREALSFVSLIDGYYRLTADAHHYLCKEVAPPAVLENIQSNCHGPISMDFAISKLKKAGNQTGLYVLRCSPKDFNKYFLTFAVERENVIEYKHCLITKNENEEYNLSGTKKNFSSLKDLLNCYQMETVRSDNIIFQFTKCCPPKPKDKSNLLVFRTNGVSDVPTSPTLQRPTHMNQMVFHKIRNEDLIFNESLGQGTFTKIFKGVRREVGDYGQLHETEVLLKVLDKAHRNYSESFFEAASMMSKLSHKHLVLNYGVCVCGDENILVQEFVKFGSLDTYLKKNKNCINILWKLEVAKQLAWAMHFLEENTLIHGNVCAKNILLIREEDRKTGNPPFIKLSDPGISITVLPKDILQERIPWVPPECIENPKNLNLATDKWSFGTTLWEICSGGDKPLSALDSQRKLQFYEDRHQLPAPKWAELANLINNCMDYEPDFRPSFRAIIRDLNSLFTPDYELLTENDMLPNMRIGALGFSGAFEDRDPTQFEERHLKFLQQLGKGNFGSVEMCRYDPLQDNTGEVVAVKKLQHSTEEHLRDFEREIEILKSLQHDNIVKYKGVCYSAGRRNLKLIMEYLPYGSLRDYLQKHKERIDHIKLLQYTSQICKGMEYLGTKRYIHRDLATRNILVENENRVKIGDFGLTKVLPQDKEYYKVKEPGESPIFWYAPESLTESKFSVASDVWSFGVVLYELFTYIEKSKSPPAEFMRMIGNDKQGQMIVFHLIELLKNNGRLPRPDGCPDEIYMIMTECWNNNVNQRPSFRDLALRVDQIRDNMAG

Row | Compound | IC50 [1] [nM] | inhibition [2] [%] | IC50 [3] [nM] | further results
1 | O=C(CCCCCCn1cc(Nc2ncc3ccn(CCc4ccccc4)c3n2)cn1)NO | > 100 | 49 | – | –
2 | O=C(CCCCCn1cc(Nc2ncc3ccn(Cc4ccc(F)cc4)c3n2)cn1)NO | > 100 | 46 | – | –
3 | O=C(CCCCCCn1cc(Nc2nc(Nc3cccc(Cl)c3)c3ccccc3n2)cn1)NO | 9400 | – | – | –
4 | Cc1ccc(Cn2ccc3cnc(Nc4cnn(CCCCCC(=O)NO)c4)nc32)cc1 | > 100 | 34 | – | –
5 | O=C(CCCCCn1cc(Nc2ncc3ccn(CCc4ccccc4)c3n2)cn1)NO | > 100 | 41 | – | –
6 | Cc1ccc(Cn2ccc3cnc(Nc4cnn(CCCCCCC(=O)NO)c4)nc32)cc1 | > 100 | 38 | – | –
7 | COc1ccc(Cn2ccc3cnc(Nc4cnn(CCCCCC(=O)NO)c4)nc32)cc1 | > 100 | 46 | – | –
8 | O=C(CCCCCCn1cc(Nc2ncc3ccn(CC4CC4)c3n2)cn1)NO | > 100 | – | 16 | –
9 | O=C(CCCCCn1cc(Nc2ncc3ccn(Cc4ccc(Cl)cc4)c3n2)cn1)NO | > 100 | 38 | – | –
10 | O=C(CCCCCCn1cc(Nc2ncc3ccn(Cc4ccc(F)cc4)c3n2)cn1)NO | > 100 | 62 | – | –
11 | O=C(CCCCCCn1cc(Nc2ncc3ccn(Cc4ccc(Cl)cc4)c3n2)cn1)NO | > 100 | 39 | – | –
12 | O=C(CCCCCCn1cc(Nc2ncc3ccn(C4CCCC4)c3n2)cn1)NO | > 100 | – | 22 | –
13 | COc1ccc(Cn2ccc3cnc(Nc4cnn(CCCCCCC(=O)NO)c4)nc32)cc1 | > 100 | 40 | – | –
14 | O=C(CCCCCCn1cc(Nc2nccc(-c3cc(F)cc(F)c3)n2)cn1)NO | 2660 | – | – | –

Second part, led by results:

Row | IC50 [1] [nM] | inhibition [2] [%] | IC50 [3] [nM] | Compound | further results
15 | 33 | – | 13.8 | O=C(CCCCCn1cc(Nc2ncc3ccn(Cc4ccccc4)c3n2)cn1)NO | –
16 | 10 | – | 15.3 | O=C(CCCCCn1cc(Nc2ncc3ccn(Cc4ccccc4F)c3n2)cn1)NO | IC50 [4]: 18.4 nM; IC50 (Histone deacetylase 1): 145 nM; IC50 [5]: 13.3 nM; IC50 [6]: 32.3 nM
17 | 32.9 | – | 21.6 | O=C(CCCCCCn1cc(Nc2ncc3ccn(-c4ccc(F)cc4)c3n2)cn1)NO | –
18 | 69 | – | 88 | O=C(CCCCCCn1cc(Nc2ncc3ccn(CC4CCCCC4)c3n2)cn1)NO | –
19 | 15.7 | – | 14.7 | O=C(CCCCCCn1cc(Nc2ncc3ccn(Cc4cccc(F)c4)c3n2)cn1)NO | IC50 (MDA-MB-468): 2450 nM; IC50 [4]: 16.1 nM; IC50 (Histone deacetylase 1): 92.1 nM; IC50 (BT-549): 3020 nM; IC50 (4T1): 3720 nM; IC50 (MDA-MB-231): 3940 nM; IC50 [5]: 21.7 nM; IC50 (CAL-51): 1280 nM; IC50 [6]: 19.9 nM
20 | 17.5 | – | 11.3 | O=C(CCCCCn1cc(Nc2ncc3ccn(-c4ccc(Br)cc4)c3n2)cn1)NO | –
21 | 17.7 | – | 34.4 | O=C(CCCCCn1cc(Nc2ncc3ccn(Cc4cccc(Cl)c4)c3n2)cn1)NO | –
22 | 15.7 | – | 5.9 | CS(=O)(=O)c1ccc(-n2ccc3cnc(Nc4cnn(CCCCCCC(=O)NO)c4)nc32)cc1 | –
23 | 39.8 | – | 36.8 | O=C(CCCCCCn1cc(Nc2ncc3ccn(Cc4cccc(Cl)c4)c3n2)cn1)NO | –
24 | 48.2 | – | 33.4 | O=C(CCCCCCn1cc(Nc2ncc3ccn(-c4ccc(Cl)cc4)c3n2)cn1)NO | –
25 | 51 | – | 12.5 | O=C(CCCCCCn1cc(Nc2ncc3ccn(Cc4ccccc4)c3n2)cn1)NO | –
26 | 16.8 | – | 13.1 | O=C(CCCCCCn1cc(Nc2ncc3ccn(-c4ccccc4)c3n2)cn1)NO | IC50 [4]: 81.2 nM; IC50 (Histone deacetylase 1): 52.1 nM; IC50 [5]: 23.5 nM; IC50 [6]: 19.6 nM
27 | 4.1 | – | 13.7 | O=C(CCCCCn1cc(Nc2ncc3ccn(Cc4cccc(F)c4)c3n2)cn1)NO | IC50 [4]: 12.6 nM; IC50 (Histone deacetylase 1): 173 nM; IC50 [6]: 8.7 nM
28 | 30.8 | – | 41.5 | O=C(CCCCCCn1cc(Nc2ncc3ccn(Cc4ccccc4Cl)c3n2)cn1)NO | –
29 | 54.8 | – | 20.2 | O=C(CCCCCCn1cc(Nc2ncc3ccn(-c4ccc(Br)cc4)c3n2)cn1)NO | –
30 | 9.8 | – | 10.8 | CS(=O)(=O)c1ccc(-n2ccc3cnc(Nc4cnn(CCCCCC(=O)NO)c4)nc32)cc1 | –
31 | 24.8 | – | 45 | O=C(CCCCCn1cc(Nc2ncc3ccn(Cc4ccccc4Cl)c3n2)cn1)NO | –
32 | 124 | – | 37.6 | COc1cccc(Cn2ccc3cnc(Nc4cnn(CCCCCC(=O)NO)c4)nc32)c1 | –
33 | 209 | – | 28.8 | COc1cccc(Cn2ccc3cnc(Nc4cnn(CCCCCCC(=O)NO)c4)nc32)c1 | –

From ChEMBL document CHEMBL5038570, “Discovery of Novel Pyrrolo[2,3-d]pyrimidine-based Derivatives as Potent JAK/HDAC Dual Inhibitors for the Treatment of Refractory Solid Tumors” (J Med Chem, 2022)
